Assay results taken from patent USRE39591E1, “6-O-substituted ketolides having antibacterial activity” (Abbott Laboratories, priority 1996, dated 2007).

System: up to 32 different microorganisms
Test: in vitro antibacterial activity (MIC), agar dilution on Brain Heart Infusion (BHI) agar with Steers replicator
Type: cell-based
Conditions: unit assumed
Outline: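 Agar dilution, 12 plates/compound; inoc 1:100 (1:10 Micrococcus, Streptococcus); 35°-37° C, 20–24 h. Erythromycin A reference plate plus drug-free growth controls at start and end. Endpoint = no growth/slight haze/sparse colonies.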

SMILES	MIC (organism code AA) [mg/L]	MIC (organism code CC) [mg/L]	MIC (organism code DD) [mg/L]	MIC (organism code EE) [mg/L]	MIC (organism code FF) [mg/L]	MIC (organism code GG) [mg/L]	MIC (organism code HH) [mg/L]	MIC (organism code II) [mg/L]	MIC (organism code JJ) [mg/L]	MIC (organism code KK) [mg/L]	MIC (organism code LL) [mg/L]	MIC (organism code MM) [mg/L]	MIC (organism code NN) [mg/L]	MIC (organism code OO) [mg/L]	MIC (organism code PP) [mg/L]	MIC (organism code QQ) [mg/L]	MIC (organism code RR) [mg/L]	MIC (organism code SS) [mg/L]	MIC (organism code TT) [mg/L]	MIC (organism code UU) [mg/L]	other results
CC[C@H]1OC(=O)[C@H](C)C(=O)[C@H](C)[C@@H](O[C@@H]2O[C@H](C)C[C@H](N(C)C)[C@H]2O)[C@@](C)(OCC=NOCc2cccc3ccccc23)C[C@@H](C)C(=O)[C@H](C)[C@H]2NC(=O)O[C@@]21C [Example 235, Compound of Formula (IX): L is CO, T is NH, R is —CH2CH═NOCH2(1-naphthyl)]	0.2	> 100	0.2	0.2	0.2	> 100	0.2	0.05	0.01	0.01	0.01	25	0.2	0.05	0.39	> 100	0.78	> 100	> 100	0.78	MIC (organism code BB): 0.2 mg/L; MIC (organism code VV): 3.1 mg/L; MIC (organism code WW): 4 mg/L; MIC (organism code XX): 0.03 mg/L; MIC (organism code YY): 0.03 mg/L; MIC (organism code ZZ): 32 mg/L; MIC (organism code ZZA): 0.5 mg/L
CC[C@H]1OC(=O)[C@H](C)C(=O)[C@H](C)[C@@H](O[C@@H]2O[C@H](C)C[C@H](N(C)C)[C@H]2O)[C@@](C)(OCC=NOCc2ccc3ccccc3c2)C[C@@H](C)C(=O)[C@H](C)[C@H]2NC(=O)O[C@@]21C [Example 236, Compound of Formula (IX): L is CO, T is NH, R is —CH2CH═NOCH2(2-naphthyl)]	0.2	> 100	0.2	0.2	0.2	> 100	0.2	0.05	0.05	0.05	0.01	25	0.2	0.05	0.1	50	0.39	> 100	> 100	0.39	MIC (organism code BB): 0.2 mg/L; MIC (organism code VV): 0.2 mg/L; MIC (organism code WW): 4 mg/L; MIC (organism code XX): 0.03 mg/L; MIC (organism code YY): 0.03 mg/L; MIC (organism code ZZ): 32 mg/L
CC[C@H]1OC(=O)[C@H](C)C(=O)[C@H](C)[C@@H](O[C@@H]2O[C@H](C)C[C@H](N(C)C)[C@H]2O)[C@@](C)(OCCNOCc2ccccc2)C[C@@H](C)C(=O)[C@H](C)[C@H]2NC(=O)O[C@@]21C [Example 237, Compound of Formula (IX): L is CO, T is NH, R is —CH2CH2NHOCH2(phenyl)]	0.39	> 100	0.39	0.39	0.39	> 100	0.39	0.1	0.05	0.05	0.05	> 100	0.2	0.05	0.39	> 100	0.39	> 100	> 100	0.78	MIC (organism code BB): 0.39 mg/L; MIC (organism code VV): 0.39 mg/L; MIC (organism code WW): 16 mg/L; MIC (organism code XX): 0.03 mg/L; MIC (organism code YY): 0.03 mg/L; MIC (organism code ZZ): > 128 mg/L; MIC (organism code ZZA): 0.05 mg/L
CC[C@H]1OC(=O)[C@H](C)C(=O)[C@H](C)[C@@H](O[C@@H]2O[C@H](C)C[C@H](N(C)C)[C@H]2O)[C@@](C)(OCCNOCc2ccc([N+](=O)[O-])cc2)C[C@@H](C)C(=O)[C@H](C)[C@H]2NC(=O)O[C@@]21C [Example 238, Compound of Formula (IX): L is CO, T is NH, R is —CH2CH2NHOCH2(4-NO2)-phenyl]	0.2	> 100	0.39	0.39	0.39	> 100	0.39	0.05	0.02	0.02	0.02	> 100	0.2	0.05	0.2	100	0.39	> 100	> 100	0.2	MIC (organism code BB): 0.2 mg/L; MIC (organism code VV): 0.1 mg/L; MIC (organism code WW): 8 mg/L; MIC (organism code XX): 0.03 mg/L; MIC (organism code YY): 0.03 mg/L; MIC (organism code ZZ): > 64 mg/L; MIC (organism code ZZA): 0.25 mg/L
CC[C@H]1OC(=O)[C@H](C)C(=O)[C@H](C)[C@@H](O[C@@H]2O[C@H](C)C[C@H](N(C)C)[C@H]2O)[C@@](C)(OCC(=O)c2ccccc2)C[C@@H](C)C(=O)[C@H](C)[C@H]2NC(=O)O[C@@]21C [Example 239, Compound of Formula (IX): L is CO, T is NH, R is —CH2C(O)-phenyl]	6.2	> 100	6.2	6.2	6.2	> 100	6.2	1.56	0.39	0.39	0.39	> 100	1.56	0.39	1.56	> 100	6.1	> 100	> 100	50	MIC (organism code BB): 6.2 mg/L; MIC (organism code VV): 3.1 mg/L; MIC (organism code WW): 64 mg/L; MIC (organism code XX): 0.25 mg/L; MIC (organism code YY): 0.25 mg/L; MIC (organism code ZZ): > 128 mg/L; MIC (organism code ZZA): 1 mg/L
CC[C@H]1OC(=O)[C@H](C)C(=O)[C@H](C)[C@@H](O[C@@H]2O[C@H](C)C[C@H](N(C)C)[C@H]2O)[C@@](C)(OCC(=O)c2ccc(F)cc2)C[C@@H](C)C(=O)[C@H](C)[C@H]2NC(=O)O[C@@]21C [Example 240, Compound of Formula (IX): L is CO, T is NH, R is —CH2C(O)-(4-F-phenyl)]	3.1	> 100	6.2	3.1	3.1	> 100	3.1	0.78	0.39	0.39	0.39	> 100	0.78	0.39	1.56	> 100	3.1	> 100	> 100	6.2	MIC (organism code BB): 3.1 mg/L; MIC (organism code VV): 1.56 mg/L; MIC (organism code WW): 32 mg/L; MIC (organism code XX): 0.25 mg/L; MIC (organism code YY): 0.25 mg/L; MIC (organism code ZZ): > 128 mg/L; MIC (organism code ZZA): 1 mg/L
CC[C@H]1OC(=O)[C@H](C)C(=O)[C@H](C)[C@@H](O[C@@H]2O[C@H](C)C[C@H](N(C)C)[C@H]2O)[C@@](C)(OCC=NNC(=O)c2ccccc2)C[C@@H](C)C(=O)[C@H](C)[C@H]2NC(=O)O[C@@]21C [Example 241, Compound of Formula (IX): L is CO, T is NH, R is —CH2CH═NNHC(O)phenyl]	3.1	> 100	6.2	6.2	6.2	> 100	6.2	1.56	0.39	1.56	0.78	> 100	6.2	0.78	3.1	> 100	1.56	> 100	> 100	100	MIC (organism code VV): 6.2 mg/L; MIC (organism code WW): 16 mg/L; MIC (organism code XX): 0.5 mg/L; MIC (organism code YY): 0.25 mg/L; MIC (organism code ZZ): > 128 mg/L; MIC (organism code ZZA): 4 mg/L
CCC1OC(=O)C(C)C(=O)C(C)C(OC2OC(C)CC(N(C)C)C2O)C(C)(OCCCc2cnc3ccccc3c2)CC(C)C(=O)C(C)C2NC(=O)OC12C (stereo not drawn) [Example 242, Compound of Formula (IX): L is CO, T is NH, R is —CH2CH2CH2(3-quinolyl)]	0.2	> 100	0.2	0.2	0.2	> 100	0.39	0.1	0.02	0.05	0.01	> 100	0.2	0.05	0.39	> 100	0.78	> 100	> 100	0.78	MIC (organism code VV): 0.39 mg/L; MIC (organism code WW): 8 mg/L; MIC (organism code XX): 0.03 mg/L; MIC (organism code YY): 0.03 mg/L; MIC (organism code ZZ): > 128 mg/L; MIC (organism code ZZA): 0.25 mg/L
CCC1OC(=O)C(C)C(=O)C(C)C(OC2OC(C)CC(N(C)C)C2O)C(C)(OCC2CC2c2cnc3ccccc3c2)CC(C)C(=O)C(C)C2NC(=O)OC12C (stereo not drawn) [Example 243, Compound of Formula (IX): L is CO, T is NH, R is —CH2(2-(3-quinolyl)cyclopropyl)]	0.05	> 100	0.05	0.1	0.05	> 100	0.1	0.02	0.02	0.02	0.02	6.2	0.1	0.02	0.02	50	0.2	50	> 100	0.39	MIC (organism code BB): 0.05 mg/L; MIC (organism code VV): 0.05 mg/L; MIC (organism code WW): 4 mg/L; MIC (organism code XX): 0.03 mg/L; MIC (organism code YY): 0.03 mg/L; MIC (organism code ZZ): 128 mg/L; MIC (organism code ZZA): 0.25 mg/L
